# Tests used:
# Format in all cases: cell-based
# [1] = system: Staphylococcus aureus NRS384 (MRSA); assay: Broth microdilution MIC, S. aureus NRS384 (MRSA); details: Staphylococcus aureus; broth microdilution, 37° C., 20 hours; read-out: MIC NRS 384 (MRSA)
# From the text: (§1) Bacteria tested are Staphylococcus aureus NRS384 (a methicillin-resistant Staphylococcus aureus, MRSA), Staphylococcus aureus ATCC 29213 (a methicillin-sensitive Staphylococcus aureus, MSSA), Streptococcus pneumoniae ATCC 49619, Enterococcus faecalis ATCC 29212, Enterococcus faecium ATCC 700221 (a vancomycin-resistant enterococcus, VRE), Bacillus subtilis ATCC 6633, and Escherichia coli ATCC 25922.
# (§2) Staphylococcus aureus NRS384 was obtained from NARSA (Network on Antimicrobial Resistance in Staphylococcus aureus, now the strain collection is in BEI resources). Other bacterial isolates were from ATCC (The American Type Culture Collection). Upon receiving the bacteria samples from aforementioned institutes, the bacteria were cultured according to the manuals provided by the suppliers. The bacteria were stored in 25% glycerol (final concentration) at −80° C.
# (§3) On the day of testing, the compounds were dissolved in pure DMSO (Sigma 276855-1L) to […] as stock. In a v-bottom 96-well plate (Axygen-wipp02280), 20 μl DMSO was added into well 2 to well 12 by manual pipetting. Into well 1, 12.8 μL of compound DMSO stock (20 mg/ml) was added and mixed with 27.2 μl DMSO by pipetting. Two fold serial dilutions were performed by transferring and mixing 20 μl of solution from well 1 to well 2, then well 2 to well 3 and so forth until well 11. The well 12 was loaded with 20 μl DMSO without compounds. This was drug ‘mother plate’. From well 1 to well 12, the drug concentrations in the mother plate were […] in DMSO. A multi-pipette was used to perform the serial dilutions. The concentration may be adjusted according to the potency of the compounds. An Echo® Acoustic liquid handling system may be used to replace manual pipetting to make the daughter plates.
# (§4) One day prior to the day of MIC testing, bacterial strains were streaked out from −80° C. glycerol stocks onto MHA plates and incubated at 37° C. for 20 hours. Streptococcus pneumoniae was streaked on blood agar and incubated at 37° C. in 5% CO2. The single colonies were picked by using an inoculation loop (Greiner-731175) and suspended into 5 ml sterile saline. The turbidity of the suspension was adjusted to 0.10 (Siemens MicroScan turbidity meter), equal to ˜1.0×10^8 cfu/ml. The bacterial suspension was diluted 200× in corresponding test medium (Table 1). This was used to inoculate daughter plates.
# (§5) For preparing u-bottom 96-well ‘daughter plates’ (Costar 3788), an aliquot of 1 μl solution from mother plate was then replicating transferred into the daughter plate using a multi-pipette.
# (§6) An aliquot of 99 μl of the bacterial suspension was inoculated into each well of the daughter plates using a multi-pipette. Each well contained ˜5.0×10^5 cfu/ml bacteria, 1% DMSO and serially diluted compounds at 64, 32, 16, 8, 4, 2, 1, 0.5, 0.25, 0.125, 0.0625 and 0 μg/ml from well 1 to well 12 respectively, in 100 μl corresponding test medium.
# (§7) The plates were incubated in ambient atmosphere and in a 37° C. incubator for 20 hours.
# (§8) Compounds of the present invention were tested for antibacterial activity against a variety of bacterial organism including Bacillus subtilis, Staphylococcus aureus, Enterococcus faecalis, Enterococcus faecium, Streptococcus pneumoniae and Escherichia coli. […] Compounds described in Examples 2, 44, 53, 56, 90, 134, 212, 213, 214, 218, 222, 304, 305, and 307 had MIC of ≤1 μg/ml against S. aureus NRS 384 (MRSA) (μg/ml) and E. faecium ATCC 700221 (VRE) (μg/ml).
# [2] = system: Staphylococcus aureus ATCC 29213 (MSSA); assay: Broth microdilution MIC, S. aureus ATCC 29213 (MSSA); details: broth microdilution, 37° C., 20 hours, read-out: MIC S. aureus ATCC 29213 (MSSA)
# From the text: as §1, §2, §3, §4, §5, §6, §7, §8
# [3] = system: Enterococcus faecalis ATCC 29212; assay: Broth microdilution MIC, E. faecalis ATCC 29212; details: ATCC29212, broth microdilution, 37° C., 20 hours, read-out: MIC E. faecalis ATCC 29212
# From the text: as §1, §2, §3, §4, §5, §6, §7, §8
# [4] = system: Enterococcus faecium ATCC 700221 (VRE); assay: Broth microdilution MIC, E. faecium ATCC 700221 (VRE); details: Enterococcus faecium; broth microdilution, 37° C., 20 hours; read-out: MIC E. faecium ATCC 700221 (VRE)
# From the text: as §1, §2, §3, §4, §5, §6, §7, §8
# [5] = system: Streptococcus pneumoniae ATCC 49619; assay: Broth microdilution MIC, S. pneumoniae ATCC 49619; details: ATCC49619, broth microdilution, 37° C., 20 hours, read-out: MIC S. pneumoniae ATCC 49619
# From the text: as §1, §2, §3, §4, §5, §6, §7, §8
# [6] = system: Bacillus subtilis ATCC 6633; assay: Broth microdilution MIC, B. subtilis ATCC 6633; details: ATCC6633, broth microdilution, 37° C., 20 hours, read-out: MIC B. subtilis ATCC 6633
# From the text: as §1, §2, §3, §4, §5, §6, §7, §8
# [7] = system: Escherichia coli ATCC 25922; assay: Broth microdilution MIC, E. coli ATCC 25922 (MHIIB w & w/o 4 mM EDTA); details: broth microdilution, 37° C., 20 hours; for MIC: Escherichia coli, ATCC25922, without EDTA, read-out: MIC E. coli ATCC 25922; for MIC E. coli ATCC 25922 + 4 mM EDTA: with 4 mM EDTA
# From the text: as §1, §2, §3, §4, §5, §6, §7, §8
MIC [1] [mg/L],MIC [2] [mg/L],MIC [3] [mg/L],MIC [4] [mg/L],MIC [5] [mg/L],MIC [6] [mg/L],MIC [7] [mg/L],MIC E. coli ATCC 25922 + 4 mM EDTA [7] [mg/L],Compound
> 64,> 64,> 64,> 64,> 64,> 64,> 64,>64,"Cn1ncc2nc(NCc3nc4ccccc4s3)[nH]c(=O)c21 [Compound 18, 5-((Benzo[d]thiazol-2-ylmethyl)amino)-1-methyl-1H-pyrazolo[4,3-d]pyrimidin-7(6H)-one]"
> 64,> 64,> 64,> 64,> 64,> 64,> 64,>64,"Cn1ncc2nc(NCc3ccc4[nH]cnc4c3)[nH]c(=O)c21 [Compound 19, 5-(((1H-benzo[d]imidazol-5-yl)methyl)amino)-1-methyl-1H-pyrazolo[4,3-d]pyrimidin-7(6H)-one]"
> 64,> 64,> 64,> 64,> 64,> 64,> 64,>64,"Cn1ncc2nc(NCc3cncs3)[nH]c(=O)c21 [Compound 20, 1-Methyl-5-((thiazol-5-ylmethyl)amino)-1H-pyrazolo[4,3-d]pyrimidin-7(6H)-one]"
> 64,> 64,> 64,> 64,> 64,> 64,> 64,>64,"Cn1ncc2nc(NCc3cnco3)[nH]c(=O)c21 [Compound 21, 1-Methyl-5-((oxazol-5-ylmethyl)amino)-1H-pyrazolo[4,3-d]pyrimidin-7(6H)-one]"
> 64,> 64,> 64,> 64,> 64,> 64,> 64,>64,"Cn1ncc2nc(NCc3ncc[nH]3)[nH]c(=O)c21 [Compound 22, 5-(((1H-imidazol-2-yl)methyl)amino)-1-methyl-1H-pyrazolo[4,3-d]pyrimidin-7(6H)-one]"
> 64,> 64,> 64,> 64,> 64,> 64,> 64,>64,"Cn1ncc2nc(NCc3cccnn3)[nH]c(=O)c21 [Compound 23, 1-Methyl-5-((pyridazin-3-ylmethyl)amino)-1H-pyrazolo[4,3-d]pyrimidin-7(6H)-one]"
8,8,> 64,8,4,8,> 64,>64,"Cn1ncc2nc(NCc3ccc(F)c(Cl)c3)[nH]c(=O)c21 [Compound 24, 5-((3-Chloro-4-fluorobenzyl)amino)-1-methyl-1H-pyrazolo[4,3-d]pyrimidin-7(6H)-one]"
8,8,16,16,4,8,> 64,64,"Cn1ncc2nc(NCc3ccc(Cl)cc3)[nH]c(=O)c21 [Compound 25, 5-((4-chlorobenzyl)amino)-1-methyl-1H-pyrazolo[4,3-d]pyrimidin-7(6H)-one]"
32,32,64,32,16,16,> 64,64,"Cn1ncc2nc(NCc3cccc(Cl)c3)[nH]c(=O)c21 [Compound 26, 5-((3-Chlorobenzyl)amino)-1-methyl-1H-pyrazolo[4,3-d]pyrimidin-7(6H)-one]"
> 64,> 64,> 64,> 64,> 64,> 64,> 64,64,"Cn1ncc2nc(NCc3ccccc3Cl)[nH]c(=O)c21 [Compound 27, 5-((2-Chlorobenzyl)amino)-1-methyl-1H-pyrazolo[4,3-d]pyrimidin-7(6H)-one]"
